Measurements: ChEMBL document CHEMBL1152041, “Design, Synthesis and Pharmacology of Cannabimimetic Indoles” (Bioorg Med Chem Lett, 1994)

Experiments:
Cannabinoid receptor = Cannabinoid receptor (Homo sapiens, UniProt P34972+P21554); assay: Binding affinity was determined in vitro against cannabinoid receptor by ability to displace [3H]CP-55940; type: protein assay
Mus musculus = assay: Tested in vivo for cannabimimetic activity in mouse; type: functional

SMILES	Ki (Cannabinoid receptor)	ED50 (Mus musculus)
CCCCCC(C)n1c(C)c(C(=O)c2cccc3ccccc23)c2ccccc21 (racemic)	33 nM	35.6 µmol/kg
CCCCC[C@H](C)n1c(C)c(C(=O)c2cccc3ccccc23)c2ccccc21	72 nM	–
CCCCCCCn1c(C)c(C(=O)c2cccc3ccccc23)c2ccccc21	> 10000 nM	> 189 µmol/kg
Cc1c(C(=O)c2cccc3ccccc23)c2ccccc2n1CCC1CCCCC1	46 nM	65.8 µmol/kg
CCCCCn1c(C)c(C(=O)c2cccc3ccccc23)c2ccccc21	9.5 nM	2.62 µmol/kg
CC(C)=CC(=O)c1c(C)n(CCN2CCOCC2)c2ccccc12	> 10000 nM	> 103 µmol/kg
CCCCCCC(C)(C)c1ccc([C@@H]2C[C@H](O)CC[C@H]2CCCO)c(O)c1 [CP-55940]	–	0.55 µmol/kg
Cc1c(C(=O)c2cccc3ccccc23)c2cccc3c2n1[C@H](CN1CCOCC1)CO3 [WIN-552122]	–	6.53 µmol/kg
CCCCC[C@@H](C)n1c(C)c(C(=O)c2cccc3ccccc23)c2ccccc21	81 nM	21.5 µmol/kg
CC(=O)c1c(C)n(CCN2CCOCC2)c2ccccc12	> 10000 nM	> 350 µmol/kg
Cc1c(C(=O)c2cccc3ccccc23)c2ccccc2n1CCc1ccccc1	1250 nM	> 257 µmol/kg
CCCCn1c(C)c(C(=O)c2cccc3ccccc23)c2ccccc21	22 nM	–
CCCCCCn1c(C)c(C(=O)c2cccc3ccccc23)c2ccccc21	48 nM	14 µmol/kg
CCCCCc1cc(O)c2c(c1)OC(C)(C)[C@@H]1CCC(C)=C[C@@H]21 [DRONABINOL]	–	4.7 µmol/kg
